Test results taken from US4752614A, “Pharmaceutical compositions of tellerium and selenium compounds for the induction of in vivo and in vitro production of cytokines” (Bar-Ilan University, priority 1987, dated 1988).
Several values for one entry are separate records, joined by “and”; a condition that tells them apart may be missing. Equal values may be shown once. Read-outs that look alike come from different tables or passages of the source.

Tests used:
[1] = tested on: IL-2; assay: Oral administration in powdered sucrose, IL-2 content (Example 13); format: in vivo, mice; conditions: for IL-2 content: oral, 24 hours
Protocol: The compound of Example 1 was thoroughly mixed with powdered sucrose and 10 μg of the compound of example 1 in 25 mg of powdered sucrose was placed in the mouth of each mouse.
After 24 hours the mice were sacrificed and the spleens were processed as described above.

[2] = tested on: IL-2; assay: IL-2 production by human mononuclear cells of normal donors and SLE patients (Example 20); format: cell-based
Protocol: Using the procedure of Example 4, human mononuclear cells were tested for their ability to produce IL-2 after induction with PHA or in unstimulated cells from normal donors and from patients suffering from systemic lupus erthyrematous. The IL-2 content was tested according to the procedure of Example 3 using the CTLD IL-2 dependent cell line.

[3] = tested on: human mononuclear cells; assay: Proliferation of human mononuclear cells (Example 19); format: cell-based
Protocol: Human mononuclear cells were obtained by layering heparinized blood over a Ficoll/Hypaque gradient. The mononuclear cells were resuspended in enriched RPMI, rinsed three times and brought to a concentrations of 5×10^5 cells/ml encriched RPMI. […] Aliquots of 0.2 ml of each sample were placed in wells of microplates (triplicates). Microplates were incubated for 72 hours at 37° C. after which they were labelled with H^3 methyl-thymidine 1 μCi/well for an additional 24 hours. Cells were then harvested with a cell harvester.

[4] = tested on: IL-2 receptors; assay: Induction of IL-2 receptors of human mononuclear cells, proliferation with recombinant IL-2 (Example 18); format: cell-based
Protocol: Human MNC were brought to a concentration of 10^6 cells/ml. RPMI+10% FCS. Aliquots of 0.2 ml. were placed in duplicate wells of microdishes and plates were incubated at 37° C. for 24 hrs. […] Plates were further incubated for 48 hrs. and labelled with 3H thymidine 24 hrs. before harvesting.
The proliferation was measured by ^3 HT uptake as described by Gillis et al, J. Immunol. […] The results are expressed in counts per minute.

[5] = Preliminary toxicity (LD50) in mice; format: in vivo; conditions: 6 week old mice
[6] = Dissolution in aqueous vehicles; format: physicochemical; conditions: organic solvent or mixture, read-out: solubility (will dissolve)
Description: The invention also contemplates a method for dissolving the compounds of the invention in an aqueous vehicle. This method comprises the use of ultrasound or mechanical agitation for an extended period of time which will dissolve the compound. Generally ultrasound is produced by a transformer which transforms 50/60 hertz, line voltage AC into high frequency electrical energy which is coupled to a transducer. By using piezoelectric ceramics, electrical frequency is converted into mechanical vibration. Typical amplitudes of 0.0003 for 40 k Hz equipment and 0.00007 to 0.001 for 20 k Hz equipment are useful. The transducer may be provided with a booster that is connected to a horn that has means for conducting the ultrasound to a container that holds the liquid for dissolving the compounds of the invention. Useful devices include small scale ultrasonic cleaners such as the Bronson instrument. […] The time required for this is usually 3 hours to 24 hours. High speed mechanical shakers such as a Tutenhauer shaker or waring blenders may be used for this purpose. The use of an electically operated agitator will cause the compounds to form a solution or dispersion after about 3 to 4 hours of agitation.
Using stirring 5.0 mg of the compound of Example 1 is dissolved under sterile conditions in 20 ml of glycerol. Thereafter 80 ml of PBS is added to form a solution containing 10 μg/0.2 ml.
It has been determined that the compound of Example 1 will dissolve as follows: […]

## Cl[TeH]1(Cl)(Cl)OCCO1 [Example 1]
[1]; Test 1, 10 μg in 25 mg sucrose
  IL-2 content: 250,175 cpm and 166,475 cpm
[1]; Test 2, 10 μg in 25 mg sucrose
  IL-2 content: 55,382 cpm and 41,938 cpm and 29,172 cpm
[1]; given in dry form or hydrolyzed in an aqueous diluent
  induction of lymphokine production: active
[2]; SLE, PHA +, 5 μg 0.2 ml PBS
  IL-2 production: 6.3 CPM × 10^-3 and 8.2 CPM × 10^-3 and 4.1 CPM × 10^-3
[2]; SLE, PHA +, 1:50 PBS
  IL-2 production: 24.2 CPM × 10^-3 and 28.1 CPM × 10^-3 and 23.8 CPM × 10^-3
[2]; SLE, PHA +, 1:100 PBS
  IL-2 production: 19.7 CPM × 10^-3 and 24.0 CPM × 10^-3 and 20.2 CPM × 10^-3
[2]; SLE, PHA +, 1:200 PBS
  IL-2 production: 15.4 CPM × 10^-3 and 18.6 CPM × 10^-3 and 16.8 CPM × 10^-3
[2]; SLE, PHA -, 5 μg 0.2 ml PBS
  IL-2 production: 2.0 CPM × 10^-3 and 2.4 CPM × 10^-3
[2]; SLE, PHA -, 1:100 PBS
  IL-2 production: 32.1 CPM × 10^-3 and 35.1 CPM × 10^-3 and 18.1 CPM × 10^-3
[2]; normal, PHA +, 5 μg 0.2 ml PBS
  IL-2 production: 36.4 CPM × 10^-3 and 30.4 CPM × 10^-3 and 38.9 CPM × 10^-3
[2]; normal, PHA +, 1:50 PBS
  IL-2 production: 48.2 CPM × 10^-3 and 38.9 CPM × 10^-3 and 53.5 CPM × 10^-3
[2]; normal, PHA +, 1:100 PBS
  IL-2 production: 46.2 CPM × 10^-3 and 54.2 CPM × 10^-3 and 44.8 CPM × 10^-3
[2]; normal, PHA +, 1:200 PBS
  IL-2 production: 38.6 CPM × 10^-3 and 49.8 CPM × 10^-3 and 38.3 CPM × 10^-3
[2]; normal, PHA -, 5 μg 0.2 ml PBS
  IL-2 production: 2.3 CPM × 10^-3 and 2.1 CPM × 10^-3
[2]; normal, PHA -, 1:50 PBS
  IL-2 production: 43.6 CPM × 10^-3 and 52.2 CPM × 10^-3 and 50.8 CPM × 10^-3
[2]; normal, PHA -, 1:100 PBS
  IL-2 production: 38.4 CPM × 10^-3 and 50.3 CPM × 10^-3 and 46.1 CPM × 10^-3
[2]; normal, PHA -, 1:200 PBS
  IL-2 production: 30.1 CPM × 10^-3 and 47.1 CPM × 10^-3 and 31.3 CPM × 10^-3
[3]; first part of table, 1 × 10^-3 μg/ml
  proliferation of human mononuclear cells: 2553 and 2180
[3]; first part of table, 1 × 10^-4 μg/ml
  proliferation of human mononuclear cells: 3838 and 2387
[3]; first part of table, 1 × 10^-5 μg/ml
  proliferation of human mononuclear cells: 3218 and 2442
[3]; first part of table, 5 × 10^-1 μg/ml
  proliferation of human mononuclear cells: 18515 and 33700
[3]; second part of table, 1 μg/ml
  proliferation of human mononuclear cells: 6000 and 5600
[3]; second part of table, 5 μg/ml
  proliferation of human mononuclear cells: 5008 and 5182
[3]; second part of table, 1 × 10^-1 μg/ml
  proliferation of human mononuclear cells: 7037 and 10382
[3]; second part of table, 1 × 10^-2 μg/ml
  proliferation of human mononuclear cells: 6898 and 5712
[3]; second part of table, 1 × 10^-3 μg/ml
  proliferation of human mononuclear cells: 5800 and 6000
[3]; second part of table, 1 × 10^-4 μg/ml
  proliferation of human mononuclear cells: 5513 and 6212
[3]; second part of table, 5 × 10^-1 μg/ml
  proliferation of human mononuclear cells: 20488 and 13600
[3]; second part of table, 5 × 10^-2 μg/ml
  proliferation of human mononuclear cells: 5520 and 5765
[4]; Test A, 1 μg/ml
  proliferation (3HT uptake): 28625 counts per minute and 27593 counts per minute
[4]; Test A, 1 × 10^-3 μg/ml
  proliferation (3HT uptake): 3652 counts per minute and 5055 counts per minute
[4]; Test A, 1 × 10^-4 μg/ml
  proliferation (3HT uptake): 3558 counts per minute and 4047 counts per minute
[4]; Test A, 1 × 10^-5 μg/ml
  proliferation (3HT uptake): 2474 counts per minute and 4063 counts per minute
[4]; Test A, 5 × 10^-1 μg/ml
  proliferation (3HT uptake): 120755 counts per minute and 105943 counts per minute
[4]; Test B, 1 μg/ml
  proliferation (3HT uptake): 23488 counts per minute
[4]; Test B, 1 × 10^-2 μg/ml
  proliferation (3HT uptake): 6057 counts per minute
[4]; Test B, 1 × 10^-3 μg/ml
  proliferation (3HT uptake): 5865 counts per minute
[4]; Test B, 1 × 10^-4 μg/ml
  proliferation (3HT uptake): 4960 counts per minute
[4]; Test B, 1 × 10^-5 μg/ml
  proliferation (3HT uptake): 7155 counts per minute
[4]; Test B, 5 × 10^-1 μg/ml
  proliferation (3HT uptake): 66910 counts per minute
[4]; Test B, 5 × 10^-2 μg/ml
  proliferation (3HT uptake): 5390 counts per minute
[4]; Test B, 7 × 10^-1 μg/ml
  proliferation (3HT uptake): 17620 counts per minute
[5]
  LD50: 300 μg./25 g of body weight
[6]; 10% glycerol/90% pbs
  solubility: 1000 µg/mL
[6]; 20% glycerol/80% pbs
  solubility: 1300 µg/mL
[6]; 40% glycerol/60% pbs
  solubility: 6000 µg/mL
